# Experimental data: the supplement of paper PMC4858399
# How the values were obtained:
# [1] = test system: Caenorhabditis elegans N2; assay: mean nematode size ln(EXT) after 48 h, plate-adjusted (DMSO control set to 6) (ln(EXT), control-adjusted); higher = larger nematodes / less growth inhibition; details: exposure time 48 h
# Outline: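 C. elegans N2 larvae, synchronised at L1, grew for 48 h at 20°C in K-medium with killed OP50, 1% DMSO and 0.5–200 µM chemical. Mean size per well was derived from natural-logged Biosort extinction after a growth model removed debris. Adjustment across plates involved subtracting the vehicle control mean and adding 6.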
# [2] = test system: Caenorhabditis elegans N2; assay: lowest effective concentration for larval growth inhibition (size below effect threshold); higher = less potent; details: exposure time 48 h
# Outline: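 Log-transformed well means of per-worm extinction, read as size on a Biosort, came from 50 C. elegans N2 L1 larvae per 96-well grown 48 h at 20°C in K-medium with killed bacteria, 1% DMSO and 0.5 to 200 µM chemical. The lowest effective concentration is the first dose at which the plate-adjusted mean size is below the threshold and stays below it at every higher dose. The threshold is 5.665.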
SMILES,mean nematode size ln(EXT) (ln) ([1]; 0.5 µM),mean nematode size ln(EXT) (ln) ([1]; 1 µM),mean nematode size ln(EXT) (ln) ([1]; 5 µM),mean nematode size ln(EXT) (ln) ([1]; 10 µM),mean nematode size ln(EXT) (ln) ([1]; 50 µM),mean nematode size ln(EXT) (ln) ([1]; 100 µM),mean nematode size ln(EXT) (ln) ([1]; 200 µM),lowest effective concentration [2]
CNC(=O)O/N=C(\SC)C(=O)N(C)C [Oxamyl],6.13,6.48,6.09,6.33,6.42,6.43,5.75,> 200 µM
CCOC(=O)CC(SP(=O)(OC)OC)C(=O)OCC (configuration not stated) [Malaoxon],5.9,5.85,6.21,5.99,5.89,5.94,5.83,> 200 µM
CC(=O)OCCOCCOCCOC(C)=O [Triethylene Glycol Diacetate],5.82,5.87,5.88,5.91,5.83,5.96,5.82,> 200 µM
OCC(CO)n1cnc(-c2ccc(F)cc2)c1-c1ccnc(Oc2ccccc2)n1,6.02,5.98,5.97,6.03,6.04,5.98,5.82,> 200 µM
O=S(=O)(O)c1ccc(N=Nc2c(O)ccc3cc(S(=O)(=O)O)ccc23)cc1 [FD&C Yellow no. 6],5.95,5.86,5.74,5.85,5.89,5.91,5.84,> 200 µM
"Oc1ccc(Cl)cc1Cl [2,4-Dichlorophenol]",6.05,6.13,6.07,6.04,6.03,6.03,6.92,> 200 µM
"CCOC(=O)CCC(=O)OCC [Butanedioic acid, diethyl ester]",5.83,5.91,5.87,5.89,5.9,5.98,5.75,> 200 µM
"CC(C)C(=O)OCC(C)(C)C(OC(=O)C(C)C)C(C)C (configuration not stated) [2,2,4-Trimethyl-1,3-pentanediol diisobutyrate]",5.99,6.03,5.99,5.9,5.99,5.94,5.68,> 200 µM
CC(C)C1(C)N=C(c2ncccc2C(=O)O)NC1=O (configuration not stated) [Imazapyr],5.84,5.98,6.01,5.97,5.9,5.84,5.77,> 200 µM
Cc1ccc(S(=O)(=O)O)cc1C [Sodium xylenesulfonate],5.89,5.95,5.92,5.82,5.89,5.8,5.72,> 200 µM
CCCCC(CC)CO (configuration not stated) [2-Ethyl-1-hexanol],5.86,5.82,5.79,5.75,5.7,5.85,5.92,> 200 µM
COCc1cnc(C2=NC(C)(C(C)C)C(=O)N2)c(C(=O)O)c1 (configuration not stated) [Imazamox],5.93,5.93,5.91,5.96,6,6.01,5.83,> 200 µM
Cc1ccc([N+](=O)[O-])cc1 [4-Nitrotoluene],5.99,5.92,5.98,5.85,5.94,5.95,5.77,> 200 µM
O=C(O)C1(C(=O)Nc2ccc(Cl)cc2Cl)CC1 [Cyclanilide],6.16,6.05,6.18,6.27,6.34,6.38,5.9,> 200 µM
